Laboratory results reported in patent publication US20250134917A1, “COMPOSITIONS AND METHODS OF REGENERATING HEART TISSUES WITH AMINOGLYCOSIDES” (The Board of Regents of The University of Texas System, priority 2022, published 2025).

Assays:
[1] = tested on: HOXB13 transcriptional activity; test: HOXB13 luciferase transcriptional activity assay in NRVMs; format: cell-based, rat; details: 10-500 nM, compared to control (PBS for neomycin, paromomycin; DMSO for rutin, hesperidin)
Description: (§1) S1: HOXB13 DNA binding domain, S2: Meis1 DNA binding domain, and S3: Interacting interface between Meis1 and HOXB13 (PDB ID: 5EGO). […] Data are mean±s.e.m.; unpaired two-sided t-test. * P<0.05, ** P<0.01, *** P<0.001.

[2] = tested on: Meis1 transcriptional activity; test: Meis1 luciferase transcriptional activity assay in NRVMs; format: cell-based, rat; details: 10-500 nM, compared to control (PBS for neomycin, paromomycin; DMSO for rutin, hesperidin)
Description: as §1

[3] = tested on: cardiomyocytes in the adult heart; test: Cardiomyocyte proliferation in adult mice with no injury stimuli; format: in vivo, mouse
Procedure: In another exemplary method, cardiomyocyte proliferation in mice was assessed in the presence of paromomycin and paromomycin-neomycin. Based on the data resulting from the in vitro screening coupled and luciferase transcription activity assays detailed in the exemplary methods herein, paromomycin was initially selected to study its capacity to prolong cardiomyocytes proliferation in adult mice with no injury stimuli. The effect of paromomycin (Paro) (200 mg/kg/day, i.p.) and paromomycin-neomycin (Paro/Neo) combo (300 mg/kg/day, i.p.) was assessed after 2 weeks of injection on cell proliferation indices, cytokinesis, cardiomyocyte cell size, isolated cardiac cell count, and nucleation on the isolated cardiomyocytes in the adult heart (FIG. 3A, FIG. 4F). […] Animals. Mice were housed in a 12:12 h light: dark cycle in a temperature-controlled room with free access to water and food. Littermate controls were used whenever possible. Both male and female mice were used on age-matched and gender-matched mice. No statistical methods were used to predetermine sample size. All surgeries and echocardiographic studies were carried out blinded to the genotype of the mice during the experiments and outcome assessments. CD1 mice (Charles River Laboratories) were used for drug-tested studies. Drug administration. Tamoxifen (Sigma) was prepared by dissolving in sesame oil (Sigma) to a concentration of 10 mg ml^-1. For the MADM clonal analysis, 14 consecutive injections of tamoxifen were administered, and mice were euthanized 2 weeks after the last injection. For injection of Paromomycin and Neomycin, mice were administered twice daily. Mice were euthanized at the same time of day to limit circadian variability. Immunofluorescence staining. Heart cryosections were equilibrated with antigen retrieval buffer with 1 mM EDTA or epitope retrieval buffer (IHC World). Samples were permeabilized and blocked with 0.3% Triton X-100 and 10% serum from the host animal of secondary antibodies in PBS for 20 minutes at room temperature. Then, samples were incubated overnight at 4° C. with the primary antibodies. After three washes with PBS, samples were incubated for 1 hour at room temperature with corresponding fluorescence secondary antibodies conjugated to Alexa Fluor 488 or 555 (Invitrogen) at 1:400. The slides were mounted in Vectashield Antifade Mounting Medium (Vector Laboratories). Slides were viewed under Nikon fluorescence or Zeiss LSM 510 confocal microscopes. Primary antibodies used: phospho histone […] (EMD Millipore, 06-570; 1:100), aurora B kinase (Sigma, A5102; 1:25) to analyse cell cycle re-entry; troponin T, cardiac isoform Ab-1, clone 13-11 (Thermo Scientific, MS-295-P1; 1:200), sarcomeric α-actinin (Abcam, ab68167; 1:200) to identify cardiomyocytes. DAPI or Hoechst was used for nuclear staining. Images were obtained using a Nikon Eclipse Ni or Nikon A1 laser scanning confocal microscopes. WGA staining and cardiomyocyte size quantification. WGA staining and quantification was performed as previously described. In brief, the slides were incubated with WGA conjugated to Alexa Fluor 488 ([…], Life Technologies) for 1 hour at room temperature following washing with PBS. To quantify the cross-sectional cell size, three to five independent hearts per group with three different views and positions, each from left and right ventricles, and septum were captured at 40× magnification. ImageJ was used to quantify the size of cardiomyocytes that were round and contained a nucleus. At least 500 cells per sample were quantified. Cardiomyocyte isolation. Adult hearts were freshly collected and fixed in 4% paraformaldehyde at 4° C. overnight. The hearts were minced to smaller pieces and subsequently incubated with collagenase D (2.4 mg ml^-1, Roche) and B (1.8 mg ml^-1, Roche) for 12 h at 37° C. using an end-over-end shaker. The supernatants were collected via 160-μm nylon mesh filter, and the procedure was repeated until no more cardiomyocytes were dissociated from the tissue. […]

[4] = tested on: mouse adult heart after myocardial infarction (MI); test: Cardiac repair after myocardial infarction (LAD ligation) in adult mice; format: in vivo
Procedure: In another exemplary method, the ability of the aminoglycosides on cardiac repair and heart regeneration was assessed in the mouse adult heart after following myocardial infarction (MI). MI was induced in adult mice by permanent ligation of the proximal left anterior descending coronary artery. This was followed by examining the expression of cell cycle inhibitors two weeks after MI (one week after drug(s) injection) by western blot analysis. […] Meanwhile, MI was induced to monitor the pharmacodynamics of the administered drug(s) to improve cardiac function and promote heart regeneration for 8-weeks (FIG. 5A). One week after injury, paromomycin and paromomycin-neomycin combo (200 mg/kg/day, i.p.) was administered while assessment of left ventricular ejection fraction (LVEF) by echocardiography was performed 1-week post-surgery, 1 week after drug(s) administration and every 2 weeks thereafter until 8 weeks post-surgery. Murine model of MI. Induction of adult anterior wall MI was performed as similar to the methods described in Nguyen et al., Nature (2020) 582, 271-276, the disclosure of which is incorporated herein in its entirety. In brief, three-month-old mice were subjected to MI by ligation of the proximal aspect of the LAD coronary artery. Mice were anaesthetized in an airtight chamber using 4% isoflurane, endotracheally intubated, and ventilated using a volume-control ventilator with 100% O2, supplemented with 2% vaporized isoflurane (Harvard Apparatus). Following lateral thoracotomy and pericardiectomy, the LAD coronary artery was identified along the anterior wall of the LV. Prolene sutures (6-0 non-absorbable) was used to ligate the LAD. Proper occlusion of the LAD artery was noted by three criteria: immediate blanching of the LV anterior wall myocardium below the ligature, echocardiographic assessment 7 days post-surgery showing an ejection fraction in the range of 45-65%, and histological analysis. Vicryl sutures (6-0 absorbable) were used to close the thoracic cavity. Drugs administrated one week after MI. Mice were subjected to echocardiography at serial time points and then euthanized at 3 months after ligation. Hearts were collected and processed for histology and immunohistochemistry. Fibrotic scar size was measured using MIQuant similar to the method described in Nascimento et al., PLOS One (2011) 6, e25045, the disclosure of which is incorporated herein in its entirety. Transthoracic echocardiography. Assessment of in vivo heart function on conscious, non-sedated mice was performed using a Vevo2100 micro-ultrasound system, M[…] probe (VisualSonics) at baseline, 1 week after injury, 1 week after drug administration, and 4, 8, 12 and 16 weeks after occlusion. Echocardiographic M-mode images were obtained from a parasternal short-axis view at the level of the papillary muscles. Left ventricular internal diameters at end diastole (LVIDd) and end systole (LVIDs) were measured from M-mode recordings. Six representative contraction cycles were selected for analysis, and average indexes (LVIDd, LVIDs and fractional shortening) were calculated for each mouse. All echocardiography measurements were performed in a blinded manner. Histology. Hearts were collected and fixed in 4% paraformaldehyde in PBS overnight at 4° C. and then processed for either paraffin or cryo embedding. […] Protein concentration was quantified using Pierce BCA protein assay kit (Pierce Biotechnology), with three biological replicates. […]

[5] = tested on: cardiomyocytes of neonatal heart; test: Cardiomyocyte proliferation in neonatal CD-1 mice; format: in vivo, mouse; details: 300 mg/kg, i.p from p1 till p14, compared with controls
Procedure: Paromomycin-neomycin was administered to neonatal CD-1 mice at 300 mg/kg, i.p from p1 till p14. Hearts were collected for histological analysis (FIG. 4A).
Immunofluorescence staining. Heart cryosections were equilibrated with antigen retrieval buffer with 1 mM EDTA or epitope retrieval buffer (IHC World). Samples were permeabilized and blocked with 0.3% Triton X-100 and 10% serum from the host animal of secondary antibodies in PBS for 20 minutes at room temperature. Then, samples were incubated overnight at 4° C. with the primary antibodies. After three washes with PBS, samples were incubated for 1 hour at room temperature with corresponding fluorescence secondary antibodies conjugated to Alexa Fluor 488 or 555 (Invitrogen) at 1:400. The slides were mounted in Vectashield Antifade Mounting Medium (Vector Laboratories). Slides were viewed under Nikon fluorescence or Zeiss LSM 510 confocal microscopes. Primary antibodies used: phospho histone H3 Ser10 (EMD Millipore, 06-570; 1:100), aurora B kinase (Sigma, A5102; 1:25) to analyse cell cycle re-entry; troponin T, cardiac isoform Ab-1, clone 13-11 (Thermo Scientific, MS-295-P1; 1:200), sarcomeric α-actinin (Abcam, ab68167; 1:200) to identify cardiomyocytes. DAPI or Hoechst was used for nuclear staining. Images were obtained using a Nikon Eclipse Ni or Nikon A1 laser scanning confocal microscopes.

HOXB13 = target: T1, HOXB13 (Mus musculus, UniProt P70321); test: Thermal shift assay on purified HOXB13 DBD; format: binding
T1 construct: made in house; host or cells: E. coli Rosetta (DE3) pLysS
Procedure: In another exemplary method, thermal shift analysis of aminoglycosides towards Meis1 and HOXB13 was performed. Initially, […] binding domains (DBDs) of Meis1 and HOXB13 were cloned, expressed, and purified to conduct the thermal shift assay (FIGS. 2A-2B). […] Protein Expression and Purification. mMeis1 and mHoxb13 were subcloned into pETDuet vector with noncleavable N-terminal 6×His tag and transformed into Rosetta (DE3) pLysS cells (Novagen). Target protein were expressed in cultures grown in autoinduction media at 18° C. overnight. The culture was harvested and sonicated in lysis buffer (20 mM Tris [pH=8.0], 1 M NaCl, 0.5 mM DTT, and supplemented with protease inhibitors). […] The eluate was concentrated and purified by gel filtration chromatography. The peak fractions were collected and concentrated to about . . . 0 mg/mL for crystallization screening.

[6] = adult CD-1 mice, i.p., 2 weeks, paromomycin 200 mg/kg, paromomycin-neomycin 300 mg/kg, Anti-Cnx43/DAPI, compared with controls
[7] = adult mice, i.p., 2 weeks, Paro 200 mg/kg/day, Paro/Neo combo 300 mg/kg/day, compared to control
[8] = adult mice, i.p., 2 weeks, Paro 200 mg/kg/day, Paro/Neo combo 300 mg/kg/day, compared to control-treated mice
[9] = two weeks after MI (one week after drug(s) injection)

T1 sequence (P70321 218-277 limits assumed): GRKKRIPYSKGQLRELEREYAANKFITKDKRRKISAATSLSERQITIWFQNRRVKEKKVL

luciferase transcriptional activity for HOXB13 [1] | luciferase transcriptional activity for Meis1 [2] | change in the melting temperature of HOXB13 (HOXB13) | Compound | RFP+ and GFP+ single-labelled daughter cardiomyocytes ([3]; Mosaic Analysis with Double Markers (MADM) mice, lineage tracing, compared to control-treated mice) | bi- and multi-nucleation of isolated cardiomyocytes [3, 6] | mono-nucleation of isolated cardiomyocytes [3, 6] | cardiomyocytes cell size via wheat germ agglutinin (WGA) staining [3, 7] | cardiomyocytes undergoing cytokinesis via Aurkb+ staining [3, 7] | number of cardiomyocytes following dissociation of the heart by collagenase digestion ([3]; adult mice, i.p., 2 weeks, Paro 200 mg/kg/day, Paro/Neo combo 300 mg/kg/day, compared to control-treated hearts) | heart weight (HW)/body weight (BW) ratio [3, 8] | pH3+ cardiomyocytes (mitosis marker) [3, 8] | left ventricular ejection fraction (LVEF) by echocardiography ([4]; 8 weeks post-surgery, drug i.p. from one week after injury, compared to control-treated mice) | wet to dry lung ratio ([4]; MI mouse model, Paromomycin 200 mg/kg, i.p., Paromomycin-Neomycin 300 mg/kg, 8 weeks, compared to controls) | fibrotic scar (size) ([4]; histological analysis, 8 weeks post-MI, compared to control-treated hearts) | p15/16 proteins (cell cycle inhibitor), western blot [4, 9] | p21 protein (cell cycle inhibitor), western blot [4, 9] | cardiomyocyte cytokinesis marker (AurkB and anti-cTnT co-immunostaining) [5] | cardiomyocyte mitosis marker (anti-pH3 and anti-cTnT co-immunostaining) [5]
significant downregulation | significant downregulation | – | NC[C@@H]1O[C@H](O[C@H]2[C@@H](O)[C@H](O[C@@H]3[C@@H](O)[C@H](N)C[C@H](N)[C@H]3O[C@H]3O[C@H](CO)[C@@H](O)[C@H](O)[C@H]3N)O[C@@H]2CO)[C@H](N)[C@@H](O)[C@@H]1O [Paromomycin, paromomycin] | significant increased | significant decrease | significant increase | significant reduction | significant increase | significantly higher number | no significant difference | significant increase | maintain the LVEF | significant decrease | trending decline | decrease | decrease | significant increase | significant increase
significant downregulation | significant downregulation | noticeable change | neomycin | – | – | – | – | – | – | – | – | – | – | – | – | – | – | –

Compound | luciferase transcriptional activity for HOXB13 [1] | luciferase transcriptional activity for Meis1 [2] | change in the melting temperature of HOXB13 (HOXB13) | RFP+ and GFP+ single-labelled daughter cardiomyocytes ([3]; Mosaic Analysis with Double Markers (MADM) mice, lineage tracing, compared to control-treated mice) | bi- and multi-nucleation of isolated cardiomyocytes [3, 6] | mono-nucleation of isolated cardiomyocytes [3, 6] | cardiomyocytes cell size via wheat germ agglutinin (WGA) staining [3, 7] | cardiomyocytes undergoing cytokinesis via Aurkb+ staining [3, 7] | number of cardiomyocytes following dissociation of the heart by collagenase digestion ([3]; adult mice, i.p., 2 weeks, Paro 200 mg/kg/day, Paro/Neo combo 300 mg/kg/day, compared to control-treated hearts) | heart weight (HW)/body weight (BW) ratio [3, 8] | pH3+ cardiomyocytes (mitosis marker) [3, 8] | left ventricular ejection fraction (LVEF) by echocardiography ([4]; 8 weeks post-surgery, drug i.p. from one week after injury, compared to control-treated mice) | wet to dry lung ratio ([4]; MI mouse model, Paromomycin 200 mg/kg, i.p., Paromomycin-Neomycin 300 mg/kg, 8 weeks, compared to controls) | fibrotic scar (size) ([4]; histological analysis, 8 weeks post-MI, compared to control-treated hearts) | p15/16 proteins (cell cycle inhibitor), western blot [4, 9] | p21 protein (cell cycle inhibitor), western blot [4, 9] | cardiomyocyte cytokinesis marker (AurkB and anti-cTnT co-immunostaining) [5] | cardiomyocyte mitosis marker (anti-pH3 and anti-cTnT co-immunostaining) [5]
COc1ccc([C@@H]2CC(=O)c3c(O)cc(O[C@@H]4O[C@H](CO[C@@H]5O[C@@H](C)[C@H](O)[C@@H](O)[C@H]5O)[C@@H](O)[C@H](O)[C@H]4O)cc3O2)cc1O [Hesperidin, hesperidin] | poor inhibitory profile | poor inhibitory profile | – | – | – | – | – | – | – | – | – | – | – | – | – | – | – | –
